Results published in patent publication US8518459B2, “Composition for regulating lipid metabolism” (Actigenomics S.A., priority 2009, dated 2013).

Assays:
[1] = Body weight and weight gain of mice on cholesterol-enriched diet, 12 weeks of treatment; assay type: in vivo, C57bl6J male mice; conditions: diet rich in cholesterol
Method: (§1) […] C57bl6J male mice (8 weeks of age) from breeding company Janvier (Le Genest Saint Isle, France) are distributed in cages and housed in a room with controlled humidity and temperature (23±0.5° C.). They are subject to a 12/12-hr light cycle (light at 7 am). During one week of adaptation, the animals have free access to drinking water and food, and are then randomized into 5 groups of 12 animals using as selection criteria weight, triglyceridemia and cholesterolemia.
(§2) • a control group receiving a diet enriched in cholesterol (see composition in Table 1) • a group treated with the reference, atorvastatin, 10 mg/kg/day, • a group receiving a 125 ng/kg/day concentration of Lipistase, • a group receiving PS (a mixture of phytosterols and stanols) to the total dose of 1.2 g/kg/day, • a group receiving a combination of Lipistase and phytosterols.
(§3) All products (reference, study products and combination of products) are administered in the diet enriched in cholesterol, and administration to animals lasts three months. Lipistase, being in the form of a soybean oil suspension, all diets receive the same volume (1.8% w/w) of neutral soybean oil than that required to provide the desired amount of Lipistase.
The assessment of weight and food intake is carried out once a week. […]

[2] = system: C57B16J mice submitted to diet rich in cholesterol; experiment: Adiposity index and distribution of white adipose tissue after 12 weeks; assay type: in vivo, C57bl6J male mice; conditions: after 12 weeks of treatment
Method: as §1, §2, §3
Animals are sacrificed by cervical dislocation; liver, muscles (gastrocnemius and soleus), heart are quickly dissected, weighed and frozen in liquid nitrogen, then stored at −80° C. The various deposits of fat tissues (subcutaneous, peri-renal, inguinal and mesenteric) are removed and weighed to calculate the adiposity index.

[3] = system: C57B16J mice submitted to diet rich in cholesterol; experiment: Index of adiponectin secretion by adipose tissue; assay type: in vivo, C57bl6J male mice; conditions: adiponectin concentration (μg/ml)/mass of adipose tissue (g)
Method: as §1, §2
as §3, with “Lipistase. […]” for “Lipistase.”

[4] = system: C57B16J mice submitted to diet rich in cholesterol; experiment: Distribution of cholesterol in lipoproteins by FPLC; assay type: in vivo, C57bl6J male mice; conditions: VLDL fraction
Method: as §1, §2
All products (reference, study products and combination of products) are administered in the diet enriched in cholesterol, and administration to animals lasts three months. […]
The determination of lipoprotein profiles is carried out by FPLC (Synelvia, France) after two and three months of treatment and the amounts of cholesterol and triglycerides are measured in the different fractions (HDL, LDL and VLDL).

[5] = system: C57B16J mice submitted to diet rich in cholesterol; experiment: Non-fasting glycemia after 12 weeks; assay type: in vivo, C57bl6J male mice; conditions: after 12 weeks of treatment
Method: as §1
as §2, with “phytosterols. […]” for “phytosterols.”
Euthanasia is performed after 3 months of treatment (12 weeks). A blood test is performed, and the following parameters are measured on an automated Konelab (Thermo Fisher, France): total cholesterol (Thermo Fisher, 981,813), triglycerides (Thermo Fisher, 981,786), glucose (Thermo Fisher, 981,780), ALAT (Thermo Fisher, 981,769), ALP (Thermo Fisher, 981,771), ASAT (Thermo Fisher, 981,771).

[6] = system: C57B16J mice submitted to diet rich in cholesterol; experiment: Non-fasting insulinemia after 12 weeks; assay type: in vivo, C57bl6J male mice; conditions: after 12 weeks of treatment
Method: as §1, §2
as §3, with “Lipistase. […]” for “Lipistase.”

[7] = intestinal tract; cited from earlier work

## CC(C)c1c(C(=O)Nc2ccccc2)c(-c2ccccc2)c(-c2ccc(F)cc2)n1CC[C@@H](O)C[C@@H](O)CC(=O)O [atorvastatin]
[1]
  Body weight compared to control animals (FIG. 1): significantly lower
  Weight gain (FIG. 2): reduction of weight gain
[2]
  Adiposity index, effect in words (FIG. 5): reduction of this index
  Epididymal fat, percentage change compared to controls HC (FIG. 6): −46%
  Perirenal (deep) fat, percentage change compared to controls HC (FIG. 6): −48%
  Subcutaneous fat, percentage change compared to controls HC (FIG. 6): −57%
[3]
  Adiponectin secretion index, effect in words (FIG. 9): significantly elevated
[4]
  Free cholesterol in VLDL, percentage change compared to controls HC (FIG. 11b): −35%
[5]
  Glycemia / blood sugar, effect in words: at the same level than that of the control animals
[6]
  Insulin levels, percentage change compared to controls HC (FIG. 14): −50%
  Insulinemia, circulating rate (FIG. 14): 2.79 ± 0.33 ng/mL

## CC(C)CCC[C@@H](C)[C@H]1CC[C@H]2[C@@H]3CC=C4C[C@@H](O)CC[C@]4(C)[C@H]3CC[C@]12C [cholesterol]
[7]
  Intestinal absorption: 50%

## CC[C@H](CC[C@@H](C)[C@H]1CC[C@H]2[C@@H]3CC[C@H]4C[C@@H](O)CC[C@]4(C)[C@H]3CC[C@]12C)C(C)C [sitostanol]
[7]
  Intestinal absorption: 1%

## CC[C@H](CC[C@@H](C)[C@H]1CC[C@H]2[C@@H]3CC=C4C[C@@H](O)CC[C@]4(C)[C@H]3CC[C@]12C)C(C)C [sitosterol]
[7]
  Intestinal absorption: 4-7%
